Data: patent US8541379B2 (Ajinomoto Co., Inc., priority 2009, dated 2013)
Marks after values point to notes of the source that are not given here.

Legend:
Type in all cases: in vivo, human
[1] = Paired comparison sensory test, basil (Labiatae) herb/spice solution; details: 0.5% basil solution, N=9
Method: More specifically, the sensory evaluation test was carried out according to the following procedures: Commercially available typical herb/spice in powdery form was dispersed in water in a concentration of 0.5% by mass to thus form a herb/spice solution. This solution was admixed with γ-Glu-Nva, γ-Glu-Cys-Gly, or γ-Glu-Abu as a test compound. According to the paired comparison test, the panelists were requested to comparatively evaluate the following three samples and to judge whether “any of them was preferred since it could enhance the flavor and taste of the herb/spice solution without changing the balance between them”: (1) 0.02% by mass of γ-Glu-Cys-Gly whose kokumi-imparting activity was identical to 0.00015% by mass of γ-Glu-Nva; (2) 0.00015% by mass of γ-Glu-Abu, the amount of which was identical to 0.00015% by mass of γ-Glu-Nva; (3) 0.003% by mass of γ-Glu-Abu whose kokumi-imparting activity was identical to that observed for 0.00015% by mass of γ-Glu-Nva. The panelists used in this test were persons who had been engaged in the development of seasonings for foods over not less than one year of the cumulative time period and who could judge that the difference in the titer between γ-Glu-Cys-Gly and γ-Glu-Val-Gly added to a solution having umami/salty taste is about 10 times (while confirming the ability of these persons at regular intervals). The evaluation was carried out at N (the number of panelists used)=9.

[2] = Paired comparison sensory test, solution of miso; details: 10.0% miso solution, N=9
Method: More specifically, the sensory evaluation test was carried out according to the following procedures: Commercially available miso (ingredients: soybeans and barley) for popular use was dispersed in hot water in a concentration of 10.0% by mass to thus form a solution of miso. This solution was admixed with γ-Glu-Nva, γ-Glu-Cys-Gly, or γ-Glu-Abu as a test compound. According to the paired comparison test method (pair test), the panelists were requested to comparatively evaluate the following three samples and to judge whether “any of them was preferred or favorable since it could enhance the flavor and taste of the solution of miso without changing the balance between them”: (1) 0.02% by mass of γ-Glu-Cys-Gly whose kokumi-imparting activity was identical to 0.0004% by mass of γ-Glu-Nva; (2) 0.0004% by mass of γ-Glu-Abu, the amount of which was identical to 0.0004% by mass of γ-Glu-Nva; (3) 0.003% by mass of γ-Glu-Abu whose kokumi-imparting activity was identical to that observed for 0.0004% by mass of γ-Glu-Nva. The panelists used in this test were persons who had been engaged in the development of seasonings for foods over not less than one year of the cumulative time period and who could judge that the difference in the titer between γ-Glu-Cys-Gly and γ-Glu-Val-Gly added to a solution having umami/salty taste is about 10 times (while confirming the ability of these persons at regular intervals). The evaluation was carried out at N (the number of panelists used)=9.

[3] = Quantitative sensory evaluation test of kokumi-imparting activity; details: n=4
Method: This quantitative sensory evaluation test was carried out according to the following procedures: The intensity of the kokumi-imparting activity observed for each test compound was determined as a value observed when blending 0.00001 to 0.5 g/dL of the corresponding test compound with the distilled water containing sodium glutamate (0.05 g/dL), inosinic acid monophosphate (0.05 g/dL), and sodium chloride (0.5 g/dL). […] The evaluation criteria are assumed to be as follows: control: 0 point; strong: 3 points; very strong: 5 points. Moreover, to clarify the criteria, the initial taste and the middle/after taste of γ-Glu-Val-Gly were set at 3.0 points, respectively. The scoring or rating was carried out using the method of line scale and more specifically, it was carried out by writing each corresponding score on a straight line on which points corresponding to −5˜0˜5 had been indicated. The panelists used in this test were defined to be persons who had been engaged in the development of seasonings for foods over not less than one year of the cumulative time period and who could judge that the difference in the titer between γ-Glu-Cys-Gly and γ-Glu-Val-Gly added to a solution having umami/salty taste is about 10 times (while confirming the ability of these persons at regular intervals). The evaluation was carried out at n (the number of panelists used)=4. The term “initial taste” means the taste which develops from 0 to 2 seconds after the sample is placed in the panelist's mouth, while the term “middle/after taste” means the taste which develops thereafter.
In addition, γ-Glu-Val-Gly, γ-Glu-Cys, γ-Glu-Val, γ-Glu-Ala and γ-Glu-Ser were likewise inspected for their kokumi-imparting effect according to the same procedures used above.

Structure (SMILES): CCC[C@H](NC(=O)CC[C@H](N)C(=O)O)C(=O)O [γ-Glu-Nva, γ-L-glutamyl-L-norvaline]
- No. of Panelists who judged γ-Glu-Nva rather preferred ([1]; 0.00015 wt % γ-Glu-Nva vs 0.00015 wt % γ-Glu-Abu, significant level of 1%): 9/9**
- No. of Panelists who judged γ-Glu-Nva rather preferred ([1]; 0.00015 wt % γ-Glu-Nva vs 0.003 wt % γ-Glu-Abu, significant level of 5%): 8/9***
- No. of Panelists who judged γ-Glu-Nva rather preferred ([1]; 0.00015 wt % γ-Glu-Nva vs 0.02 wt % γ-Glu-Cys-Gly, significant level of 1%): 9/9**
- No. of Panelists who judged γ-Glu-Nva rather preferred ([2]; 0.0004 wt % γ-Glu-Nva vs 0.0004 wt % γ-Glu-Abu, significant level of 1%): 9/9***
- No. of Panelists who judged γ-Glu-Nva rather preferred ([2]; 0.0004 wt % γ-Glu-Nva vs 0.003 wt % γ-Glu-Abu, significant level of 1%): 9/9***
- No. of Panelists who judged γ-Glu-Nva rather preferred ([2]; 0.0004 wt % γ-Glu-Nva vs 0.02 wt % γ-Glu-Cys-Gly, significant level of 5%): 8/9**
- Sensory Evaluation Profile ([3]; 0.0001 g/dL in umami/salty solution): Mainly the initial and middle tastes
- Intensity of kokumi, Middle/After Taste ([3]; 0.0001 g/dL in water with MSG 0.05, IMP 0.05, NaCl 0.5 g/dL): 2.8 points
- Intensity of kokumi, Initial Taste ([3]; 0.0001 g/dL in water with MSG 0.05, IMP 0.05, NaCl 0.5 g/dL, scale control 0, strong 3, very strong 5): 3.6 points
